# ChEMBL document CHEMBL5247625, “Discovery and characterization of novel potent BCR-ABL degraders by conjugating allosteric inhibitor” (Eur J Med Chem, 2022)
# pIC50: −log10 of the molar value. Activity calls are given as the source filed them. The rule behind the calls is not given here.
# Legend:
# [1] = molecular target: T1, Protein cereblon/Tyrosine-protein kinase ABL1/Breakpoint cluster region protein (Homo sapiens, UniProt P00519+P11274+Q96SW2); assay: Protac activity at CRBN/BCR-ABL in human K562 cells assessed as increase in BCR-ABL degradation at 5 nM by Western blotting analysis; assay type: cell-based
# T1 sequence (P00519 whole entry, looked up): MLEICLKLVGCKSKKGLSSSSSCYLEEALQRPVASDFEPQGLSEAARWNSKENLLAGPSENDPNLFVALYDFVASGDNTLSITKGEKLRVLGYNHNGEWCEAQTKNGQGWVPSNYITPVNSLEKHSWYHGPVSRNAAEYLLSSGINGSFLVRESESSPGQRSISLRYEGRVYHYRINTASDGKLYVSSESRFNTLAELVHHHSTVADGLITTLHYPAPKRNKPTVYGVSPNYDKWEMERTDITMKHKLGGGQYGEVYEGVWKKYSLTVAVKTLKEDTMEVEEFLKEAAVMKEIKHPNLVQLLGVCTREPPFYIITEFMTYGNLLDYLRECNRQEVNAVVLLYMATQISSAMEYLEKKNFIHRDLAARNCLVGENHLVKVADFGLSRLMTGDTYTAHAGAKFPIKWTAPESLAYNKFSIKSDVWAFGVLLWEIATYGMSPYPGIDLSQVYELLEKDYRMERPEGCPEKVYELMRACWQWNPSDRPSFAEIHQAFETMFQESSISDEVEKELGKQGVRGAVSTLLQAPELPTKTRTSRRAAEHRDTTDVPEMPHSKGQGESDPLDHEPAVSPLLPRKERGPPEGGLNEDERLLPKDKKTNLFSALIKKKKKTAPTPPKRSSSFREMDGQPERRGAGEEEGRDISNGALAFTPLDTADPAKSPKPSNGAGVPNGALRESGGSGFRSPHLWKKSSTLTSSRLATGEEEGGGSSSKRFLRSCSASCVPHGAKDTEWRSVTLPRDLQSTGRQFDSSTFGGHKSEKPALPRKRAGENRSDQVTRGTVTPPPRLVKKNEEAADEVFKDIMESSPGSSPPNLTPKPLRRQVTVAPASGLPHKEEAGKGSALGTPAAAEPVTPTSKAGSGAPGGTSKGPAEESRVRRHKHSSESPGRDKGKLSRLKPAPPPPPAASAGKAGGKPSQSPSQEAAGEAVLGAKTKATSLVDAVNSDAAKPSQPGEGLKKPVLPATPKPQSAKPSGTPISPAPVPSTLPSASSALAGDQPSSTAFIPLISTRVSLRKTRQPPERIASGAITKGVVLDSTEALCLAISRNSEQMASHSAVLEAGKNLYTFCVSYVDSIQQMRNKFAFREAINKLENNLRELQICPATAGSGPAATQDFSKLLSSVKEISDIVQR
# T1 sequence (P11274 whole entry, looked up): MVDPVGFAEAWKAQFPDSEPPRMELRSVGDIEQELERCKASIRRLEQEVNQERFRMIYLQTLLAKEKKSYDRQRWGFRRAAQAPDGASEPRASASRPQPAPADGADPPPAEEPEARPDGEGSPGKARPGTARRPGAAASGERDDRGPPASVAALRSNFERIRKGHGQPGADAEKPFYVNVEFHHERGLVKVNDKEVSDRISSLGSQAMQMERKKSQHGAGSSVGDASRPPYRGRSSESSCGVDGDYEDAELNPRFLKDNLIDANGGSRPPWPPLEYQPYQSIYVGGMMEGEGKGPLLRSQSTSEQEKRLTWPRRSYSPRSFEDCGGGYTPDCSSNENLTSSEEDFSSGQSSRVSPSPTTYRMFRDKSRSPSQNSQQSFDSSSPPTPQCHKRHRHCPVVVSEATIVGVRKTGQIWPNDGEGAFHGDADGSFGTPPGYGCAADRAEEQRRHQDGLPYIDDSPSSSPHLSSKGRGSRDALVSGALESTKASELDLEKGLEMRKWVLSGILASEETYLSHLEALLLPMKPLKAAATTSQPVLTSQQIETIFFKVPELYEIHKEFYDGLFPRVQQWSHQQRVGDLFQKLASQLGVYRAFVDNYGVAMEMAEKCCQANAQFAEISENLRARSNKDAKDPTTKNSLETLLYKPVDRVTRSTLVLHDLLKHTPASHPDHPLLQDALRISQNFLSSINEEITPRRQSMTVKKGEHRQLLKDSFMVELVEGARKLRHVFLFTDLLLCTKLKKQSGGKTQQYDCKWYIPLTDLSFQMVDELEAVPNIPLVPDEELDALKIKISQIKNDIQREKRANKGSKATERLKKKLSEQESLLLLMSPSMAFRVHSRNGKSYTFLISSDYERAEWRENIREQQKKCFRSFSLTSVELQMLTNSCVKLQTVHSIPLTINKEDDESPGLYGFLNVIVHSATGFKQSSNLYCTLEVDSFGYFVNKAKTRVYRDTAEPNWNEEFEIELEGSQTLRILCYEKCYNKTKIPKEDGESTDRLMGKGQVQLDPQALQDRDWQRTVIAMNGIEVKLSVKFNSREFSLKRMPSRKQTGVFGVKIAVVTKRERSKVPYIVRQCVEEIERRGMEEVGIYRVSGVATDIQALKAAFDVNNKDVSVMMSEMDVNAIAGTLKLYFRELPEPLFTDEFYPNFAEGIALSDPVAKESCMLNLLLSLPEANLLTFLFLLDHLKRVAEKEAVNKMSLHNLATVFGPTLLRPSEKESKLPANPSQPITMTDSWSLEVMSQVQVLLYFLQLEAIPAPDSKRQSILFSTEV
# T1 sequence (Q96SW2 whole entry, looked up): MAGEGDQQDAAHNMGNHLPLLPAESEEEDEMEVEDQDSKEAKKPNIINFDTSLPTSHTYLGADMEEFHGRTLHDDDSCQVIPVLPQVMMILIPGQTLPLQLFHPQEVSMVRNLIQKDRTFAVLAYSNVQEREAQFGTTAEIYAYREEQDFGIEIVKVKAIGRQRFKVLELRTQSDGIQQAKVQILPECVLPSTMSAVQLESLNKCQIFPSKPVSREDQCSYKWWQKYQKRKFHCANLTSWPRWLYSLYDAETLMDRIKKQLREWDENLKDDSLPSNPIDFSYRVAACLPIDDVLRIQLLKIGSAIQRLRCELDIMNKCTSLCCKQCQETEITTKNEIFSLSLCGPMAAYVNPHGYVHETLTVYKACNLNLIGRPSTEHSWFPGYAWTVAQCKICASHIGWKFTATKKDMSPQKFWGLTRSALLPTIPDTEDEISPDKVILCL
# [2] = molecular target: T1, Protein cereblon/Tyrosine-protein kinase ABL1/Breakpoint cluster region protein; assay: Protac activity at CRBN/BCR-ABL in human K562 cells assessed as increase in BCR-ABL degradation at 100 nM by Western blotting analysis; assay type: cell-based
# K562 = assay: cells; details: Homo sapiens, K562, 48 h
# Description: Antiproliferative activity against human K562 cells assessed as inhibition of cell growth incubated for 2 days by CCK8 assay
# [3] = molecular target: T1, Protein cereblon/Tyrosine-protein kinase ABL1/Breakpoint cluster region protein; assay: Protac activity at CRBN/BCR-ABL in human K562 cells assessed as increase in BCR-ABL degradation at 50 nM by Western blotting analysis; assay type: cell-based
# [4] = molecular target: Crk-like protein (Homo sapiens) (UniProt P46109); assay: Inhibition of CRKL phosphorylation at Tyr207 residue in human K562 cells at 0.3 to 100 nM incubated for 16 hrs by Western blotting analysis; assay type: cell-based; details: dose 0.3-100 nM
# Sequence of Crk-like protein (Homo sapiens) (P46109 whole entry, the tested form may be a part): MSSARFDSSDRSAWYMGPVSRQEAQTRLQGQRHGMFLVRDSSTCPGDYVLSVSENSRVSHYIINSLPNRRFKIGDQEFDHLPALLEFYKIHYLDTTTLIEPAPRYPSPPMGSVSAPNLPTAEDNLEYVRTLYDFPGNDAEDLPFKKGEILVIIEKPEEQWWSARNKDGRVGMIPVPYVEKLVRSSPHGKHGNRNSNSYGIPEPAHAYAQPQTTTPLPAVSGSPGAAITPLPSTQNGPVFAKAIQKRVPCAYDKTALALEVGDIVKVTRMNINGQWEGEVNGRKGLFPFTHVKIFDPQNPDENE
# [5] = molecular target: T2, Signal transducer and activator of transcription 5A (Homo sapiens) (UniProt P42229); assay: Inhibition of STAT5 phosphorylation at Tyr694 residue in human K562 cells at 100 nM incubated for 6 hrs followed by compound washout measured upto 96 hrs by Western blotting analysis; assay type: cell-based
# T2 sequence (whole entry): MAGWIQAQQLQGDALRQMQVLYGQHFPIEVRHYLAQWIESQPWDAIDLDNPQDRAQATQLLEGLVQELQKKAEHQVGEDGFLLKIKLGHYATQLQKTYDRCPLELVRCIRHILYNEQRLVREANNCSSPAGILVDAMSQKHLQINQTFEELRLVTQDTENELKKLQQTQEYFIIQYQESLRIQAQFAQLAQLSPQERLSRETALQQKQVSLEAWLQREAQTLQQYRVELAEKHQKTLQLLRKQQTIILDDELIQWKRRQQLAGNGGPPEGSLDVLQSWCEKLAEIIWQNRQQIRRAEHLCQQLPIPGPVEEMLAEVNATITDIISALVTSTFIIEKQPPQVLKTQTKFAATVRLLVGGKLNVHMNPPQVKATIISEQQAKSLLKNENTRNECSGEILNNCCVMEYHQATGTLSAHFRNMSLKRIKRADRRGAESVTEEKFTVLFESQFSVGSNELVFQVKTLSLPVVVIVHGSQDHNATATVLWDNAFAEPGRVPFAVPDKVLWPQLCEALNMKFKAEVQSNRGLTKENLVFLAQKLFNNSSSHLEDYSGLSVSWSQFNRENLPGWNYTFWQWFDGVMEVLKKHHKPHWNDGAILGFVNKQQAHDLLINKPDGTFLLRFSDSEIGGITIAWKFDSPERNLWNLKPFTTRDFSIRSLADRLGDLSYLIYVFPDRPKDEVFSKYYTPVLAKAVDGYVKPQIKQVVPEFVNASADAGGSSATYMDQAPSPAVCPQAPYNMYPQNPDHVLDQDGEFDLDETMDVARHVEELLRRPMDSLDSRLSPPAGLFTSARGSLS
# [6] = molecular target: Crk-like protein (Homo sapiens) (UniProt P46109); assay: Inhibition of CRKL phosphorylation at Tyr207 residue in human K562 cells at 100 nM incubated for 6 hrs followed by compound washout measured upto 96 hrs by Western blotting analysis; assay type: cell-based
# [7] = molecular target: T3, Bcr/Abl fusion protein (Homo sapiens) (UniProt P00519+P11274); assay: Inhibition of BCR-ABL phosphorylation at Tyr245 residue in human K562 cells at 0.3 to 100 nM incubated for 16 hrs by Western blotting analysis; assay type: cell-based; details: dose 0.3-100 nM
# T3 sequence (P00519 whole entry, looked up, the tested form may be a part): as the sequence (P00519 whole entry, looked up) above
# T3 sequence (P11274 whole entry, looked up, the tested form may be a part): as the sequence (P11274 whole entry, looked up) above
# [8] = molecular target: T2, Signal transducer and activator of transcription 5A (Homo sapiens); assay: Inhibition of STAT5 phosphorylation at Tyr694 residue in human K562 cells at 0.3 to 100 nM incubated for 16 hrs by Western blotting analysis; assay type: cell-based; details: dose 0.3-100 nM
# [9] = molecular target: T3, Bcr/Abl fusion protein (Homo sapiens); assay: Inhibition of BCR-ABL phosphorylation at Tyr245 residue in human K562 cells at 100 nM incubated for 6 hrs followed by compound washout measured upto 96 hrs by Western blotting analysis; assay type: cell-based
# [10] = molecular target: T1, Protein cereblon/Tyrosine-protein kinase ABL1/Breakpoint cluster region protein; assay: Protac activity at CRBN/BCR-ABL in human K562 cells assessed as increase in BCR-ABL degradation at 100 nM incubated for 6 hrs followed by compound washout measured upto 96 hrs by Western blotting analysis; assay type: cell-based
SMILES,Activity [1] [%],Activity [2] [%],pIC50 (K562),Activity [3] [%],further results
O=C1CCC(N2Cc3c(SCCCCNC4CCN(c5ncc(C(=O)Nc6ccc(OC(F)(F)Cl)cc6)cc5-c5ccn[nH]5)CC4)cccc3C2=O)C(=O)N1 (stereo unspecified),5.76,41.6,6.49,,
O=C1CCC(N2Cc3c(OCCCCN4CCN(c5ncc(C(=O)Nc6ccc(OC(F)(F)Cl)cc6)cc5-c5ccn[nH]5)CC4)cccc3C2=O)C(=O)N1 (stereo unspecified),30.6,89.2,7.17,,
O=C1CCC(N2C(=O)c3cccc(NCCOCCOCCC(=O)N4CCN(c5ncc(C(=O)Nc6ccc(OC(F)(F)Cl)cc6)cc5-c5ccn[nH]5)CC4)c3C2=O)C(=O)N1 (stereo unspecified),,,5.96,-1.5,
O=C1CCC(N2Cc3c(SCCCCNc4ncc(C(=O)Nc5ccc(OC(F)(F)Cl)cc5)cc4-c4ccn[nH]4)cccc3C2=O)C(=O)N1 (stereo unspecified),-3.56,-9.23,6.03,,
O=C1CCC(N2Cc3c(NCCCC(=O)N4CCN(c5ncc(C(=O)Nc6ccc(OC(F)(F)Cl)cc6)cc5-c5ccn[nH]5)CC4)cccc3C2=O)C(=O)N1 (stereo unspecified),,,6.18,-2.33,
O=C1CCC(N2C(=O)c3cccc(NCCOCCOCCOCCOCCC(=O)N4CCN(c5ncc(C(=O)Nc6ccc(OC(F)(F)Cl)cc6)cc5-c5ccn[nH]5)CC4)c3C2=O)C(=O)N1 (stereo unspecified),,,6.05,4.94,
Nc1cccc2c1CN(C1CCC(=O)NC1=O)C2=O (stereo unspecified) [LENALIDOMIDE],,,< 5.00,,
O=C1CCC(N2Cc3c(SCCCCCCN4CCN(c5ncc(C(=O)Nc6ccc(OC(F)(F)Cl)cc6)cc5-c5ccn[nH]5)CC4)cccc3C2=O)C(=O)N1 (stereo unspecified),24.6,40.8,6.53,,
O=C1CCC(N2C(=O)c3cccc(SCCCCN4CCN(C5CCN(c6ncc(C(=O)Nc7ccc(OC(F)(F)Cl)cc7)cc6-c6ccn[nH]6)CC5)CC4)c3C2=O)C(=O)N1 (stereo unspecified),38.2,70.9,6.77,,
O=C1CCC(N2Cc3c(C#CCCCCCCN4CCN(C5CCN(c6ncc(C(=O)Nc7ccc(OC(F)(F)Cl)cc7)cc6-c6ccn[nH]6)CC5)CC4)cccc3C2=O)C(=O)N1 (stereo unspecified),38.4,29.9,6.91,,
O=C1CCC(N2Cc3c(SCCCCCCCN4CCN(C5CCN(c6ncc(C(=O)Nc7ccc(OC(F)(F)Cl)cc7)cc6-c6ccn[nH]6)CC5)CC4)cccc3C2=O)C(=O)N1 (stereo unspecified),21.9,64.4,7.33,,
O=C1CCC(N2Cc3c(SCCCC(=O)N4CCN(c5ncc(C(=O)Nc6ccc(OC(F)(F)Cl)cc6)cc5-c5ccn[nH]5)CC4)cccc3C2=O)C(=O)N1 (stereo unspecified),,,6.98,35.1,
O=C1CCC(N2Cc3c(SCCCCCNC4CCN(c5ncc(C(=O)Nc6ccc(OC(F)(F)Cl)cc6)cc5-c5ccn[nH]5)CC4)cccc3C2=O)C(=O)N1 (stereo unspecified),-3.96,29.7,6.01,,
O=C1CCC(N2Cc3c(SCCCCCNc4ncc(C(=O)Nc5ccc(OC(F)(F)Cl)cc5)cc4-c4ccn[nH]4)cccc3C2=O)C(=O)N1 (stereo unspecified),6.85,29.6,6.25,,
O=C1CCC(N2Cc3c(SCCCCN4CCN(C5CCN(c6ncc(C(=O)Nc7ccc(OC(F)(F)Cl)cc7)cc6-c6ccn[nH]6)CC5)CC4)cccc3C2=O)C(=O)N1 (stereo unspecified),38.9,86.1,7.46,,
O=C1CCC(N2Cc3c(OCCCC(=O)N4CCN(c5ncc(C(=O)Nc6ccc(OC(F)(F)Cl)cc6)cc5-c5ccn[nH]5)CC4)cccc3C2=O)C(=O)N1 (stereo unspecified),,,5.67,-12.3,
O=C1CCC(N2Cc3c(SCCCCCCNc4ncc(C(=O)Nc5ccc(OC(F)(F)Cl)cc5)cc4-c4ccn[nH]4)cccc3C2=O)C(=O)N1 (stereo unspecified),-5.46,-8.74,5.71,,
O=C1CCC(N2C(=O)c3cccc(SCCCC(=O)N4CCN(c5ncc(C(=O)Nc6ccc(OC(F)(F)Cl)cc6)cc5-c5ccn[nH]5)CC4)c3C2=O)C(=O)N1 (stereo unspecified),,,6.28,9.57,

SMILES,Activity [1] [%],Activity [2] [%],pIC50 (K562),Activity [3] [%],further results
O=C1CCC(N2Cc3c(SCCCCCCNC4CCN(c5ncc(C(=O)Nc6ccc(OC(F)(F)Cl)cc6)cc5-c5ccn[nH]5)CC4)cccc3C2=O)C(=O)N1 (stereo unspecified),29.4,70.9,6.64,,
O=C1CCC(N2C(=O)c3cccc(OCCCC(=O)N4CCN(c5ncc(C(=O)Nc6ccc(OC(F)(F)Cl)cc6)cc5-c5ccn[nH]5)CC4)c3C2=O)C(=O)N1 (stereo unspecified),,,5.95,-1.35,
O=C1CCC(N2C(=O)c3cccc(C#CCCCC(=O)N4CCN(c5ncc(C(=O)Nc6ccc(OC(F)(F)Cl)cc6)cc5-c5ccn[nH]5)CC4)c3C2=O)C(=O)N1 (stereo unspecified),,,6.56,9.65,
O=C1CCC(N2Cc3c(SCCCCCN4CCN(C5CCN(c6ncc(C(=O)Nc7ccc(OC(F)(F)Cl)cc7)cc6-c6ccn[nH]6)CC5)CC4)cccc3C2=O)C(=O)N1 (stereo unspecified),24.3,37.1,7.64,,
Nc1cccc2c1C(=O)N(C1CCC(=O)NC1=O)C2=O (stereo unspecified) [POMALIDOMIDE],,,< 5.00,,
O=C1CCC(N2C(=O)c3cccc(NCCCC(=O)N4CCN(c5ncc(C(=O)Nc6ccc(OC(F)(F)Cl)cc6)cc5-c5ccn[nH]5)CC4)c3C2=O)C(=O)N1 (stereo unspecified),,,6.89,9.05,
O=C1CCC(N2C(=O)c3cccc(NCCCCCCC(=O)N4CCN(c5ncc(C(=O)Nc6ccc(OC(F)(F)Cl)cc6)cc5-c5ccn[nH]5)CC4)c3C2=O)C(=O)N1 (stereo unspecified),,,6.42,1,
O=C1CCC(N2Cc3c(SCCOCC(=O)N4CCN(c5ncc(C(=O)Nc6ccc(OC(F)(F)Cl)cc6)cc5-c5ccn[nH]5)CC4)cccc3C2=O)C(=O)N1 (stereo unspecified),,,6.81,10.2,
O=C1CCC(N2C(=O)c3cccc(NCCCCCC(=O)N4CCN(c5ncc(C(=O)Nc6ccc(OC(F)(F)Cl)cc6)cc5-c5ccn[nH]5)CC4)c3C2=O)C(=O)N1 (stereo unspecified),,,6.73,1.67,
O=C1CCC(N2Cc3c(SCCCN4CCN(C5CCN(c6ncc(C(=O)Nc7ccc(OC(F)(F)Cl)cc7)cc6-c6ccn[nH]6)CC5)CC4)cccc3C2=O)C(=O)N1 (stereo unspecified),55.5,49.6,7.31,,
O=C1CCC(N2C(=O)c3cccc(NCCCCC(=O)N4CCN(c5ncc(C(=O)Nc6ccc(OC(F)(F)Cl)cc6)cc5-c5ccn[nH]5)CC4)c3C2=O)C(=O)N1 (stereo unspecified),,,6.77,1.94,
O=C1CCC(N2C(=O)c3cccc(NCC(=O)N4CCN(c5ncc(C(=O)Nc6ccc(OC(F)(F)Cl)cc6)cc5-c5ccn[nH]5)CC4)c3C2=O)C(=O)N1 (stereo unspecified),,,6.24,1.82,
CN1C(=O)CCC(N2Cc3c(SCCCCCCN4CCN(C5CCN(c6ncc(C(=O)Nc7ccc(OC(F)(F)Cl)cc7)cc6-c6ccn[nH]6)CC5)CC4)cccc3C2=O)C1=O (stereo unspecified),,,,,Activity [4]: Active; inhibition [5]: inactive; inhibition [6]: inactive; Activity [7]: Active; Activity [8]: Active; inhibition [9]: inactive; Activity [10]: inactive
O=C1CCC(N2Cc3c(C#CCCCCN4CCN(c5ncc(C(=O)Nc6ccc(OC(F)(F)Cl)cc6)cc5-c5ccn[nH]5)CC4)cccc3C2=O)C(=O)N1 (stereo unspecified),32.8,89.1,7.39,,
O=C1CCC(N2Cc3c(SCCCN4CCN(c5ncc(C(=O)Nc6ccc(OC(F)(F)Cl)cc6)cc5-c5ccn[nH]5)CC4)cccc3C2=O)C(=O)N1 (stereo unspecified),48.4,40,6.86,,
O=C1CCC(N2Cc3c(OCCCCCCN4CCN(C5CCN(c6ncc(C(=O)Nc7ccc(OC(F)(F)Cl)cc7)cc6-c6ccn[nH]6)CC5)CC4)cccc3C2=O)C(=O)N1 (stereo unspecified),28.8,67.9,7.18,,
O=C1CCC(N2Cc3c(SCCCCN4CCN(c5ncc(C(=O)Nc6ccc(OC(F)(F)Cl)cc6)cc5-c5ccn[nH]5)CC4)cccc3C2=O)C(=O)N1 (stereo unspecified),40.8,87.8,7.52,,
